The source of these data is publication PMC6722883 (FEBS Open Bio, 2019).

The nature of the data set: physchem. To be noted: buffer or solvent, pH 7.2.

Structures are written as SMILES.

What is called share remaining is what is left of the initial amount, in per cent. The low end stands for more turnover, the high end for less turnover. `CC[C@H](C)[C@@H]1NC(=O)[C@@H]2CCCN2C(=O)[C@H](CO)NC(=O)[C@H](CCSC)NC(=O)[C@H](C)NC(=O)[C@H](CO)NC(=O)[C@@H]2CSSC[C@H](NC(=O)CN)C(=O)N[C@@H](CSSC[C@@H](C(N)=O)NC1=O)C(=O)N[C@@H](CO)C(=O)N[C@@H](Cc1cnc[nH]1)C(=O)N1CCC[C@H]1C(=O)N[C@@H](C(C)C)C(=O)N2` [TxID, α‐Conotoxin TxID]: the amount remaining at 4 h is ~50%.
